In general, pIC50 refers to the IC50 on a negative log10 scale, so that one unit is a factor of ten. One may read the inhibition as the percentage by which the read-out fell short of the control.

pIC50: −log10 of the molar value.

One test deals with T1, PDGF-Ra (Homo sapiens, UniProt P16234).
T1 construct: host or cells: G-292 human osteosarcoma cells
Kind of test: Inhibitory activity against PDGF-Ra phosphorylation by PDGF-AA stimulation using G292. Particulars: Pharmacological Test Example 1; > means inhibition at indicated concentration not more than 50%, < and << not less than 50%; read-out: PDGF (E) IC50. It is filed as cell-based. An outline of the steps: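 In G-292 osteosarcoma cells kept overnight in 0.1% FBS, compound exposure (1 hr, 37 °C) preceded PDGF-AA stimulation at 50 ng/ml for 5 min; receptor phosphotyrosine was then detected by PY-20 capture ELISA.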

In the next test the target is T2, c-kit (Homo sapiens, UniProt P10721).
T2 construct: MO7e (human megakaryocytic leukemia cell line) which had been arrested for 20 hr; endogenous in cells; host or cells: MO7e human megakaryocytic leukemia cell line
T2 sequence (P10721 26-976): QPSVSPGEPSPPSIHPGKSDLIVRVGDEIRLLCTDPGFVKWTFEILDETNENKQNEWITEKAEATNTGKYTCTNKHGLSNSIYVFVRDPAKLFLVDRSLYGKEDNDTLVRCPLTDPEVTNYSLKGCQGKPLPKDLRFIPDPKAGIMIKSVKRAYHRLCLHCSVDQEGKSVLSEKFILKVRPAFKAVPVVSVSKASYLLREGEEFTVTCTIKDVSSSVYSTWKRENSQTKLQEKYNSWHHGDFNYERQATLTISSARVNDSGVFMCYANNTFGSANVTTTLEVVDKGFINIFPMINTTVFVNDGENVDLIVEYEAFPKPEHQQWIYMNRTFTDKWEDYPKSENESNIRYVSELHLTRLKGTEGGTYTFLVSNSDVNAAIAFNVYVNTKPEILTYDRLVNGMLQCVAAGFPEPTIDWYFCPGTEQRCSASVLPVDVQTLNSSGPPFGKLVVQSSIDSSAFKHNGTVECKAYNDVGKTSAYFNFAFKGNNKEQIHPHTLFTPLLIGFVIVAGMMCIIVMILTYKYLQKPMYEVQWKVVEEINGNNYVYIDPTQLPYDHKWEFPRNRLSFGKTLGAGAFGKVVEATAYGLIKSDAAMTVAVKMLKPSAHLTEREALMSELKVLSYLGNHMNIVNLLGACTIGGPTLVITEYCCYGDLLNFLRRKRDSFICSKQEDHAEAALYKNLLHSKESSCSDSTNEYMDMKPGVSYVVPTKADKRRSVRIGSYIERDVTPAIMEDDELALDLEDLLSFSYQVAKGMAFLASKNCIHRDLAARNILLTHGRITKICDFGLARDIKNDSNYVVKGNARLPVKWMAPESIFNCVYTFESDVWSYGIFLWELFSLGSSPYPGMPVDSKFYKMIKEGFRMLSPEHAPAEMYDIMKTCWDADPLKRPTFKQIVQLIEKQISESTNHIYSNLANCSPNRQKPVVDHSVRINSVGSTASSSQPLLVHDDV
Kind of test: Inhibitory activity against c-kit autophosphorylation (MO7e cells, h-SCF). It is filed as cell-based. Particulars: for pIC50: MO7e cells, h-SCF 50 ng/ml, read-out: c-kit IC50; for inhibition at 1 µM: Mo7e, figure in parentheses in −( ), at 1000 nM. The method in brief:
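MO7e cells, arrested for 20 hr, were pretreated with test compound in DMSO for 1 hr and then stimulated with 50 ng/ml h-SCF for 5 min before lysis. Lysates were captured on immobilized anti-phosphotyrosine PY-20, probed with anti-c-kit antibody and HRP anti-rabbit IgG, and read colorimetrically at 450 nm.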

T1 sequence (P16234 24-1089): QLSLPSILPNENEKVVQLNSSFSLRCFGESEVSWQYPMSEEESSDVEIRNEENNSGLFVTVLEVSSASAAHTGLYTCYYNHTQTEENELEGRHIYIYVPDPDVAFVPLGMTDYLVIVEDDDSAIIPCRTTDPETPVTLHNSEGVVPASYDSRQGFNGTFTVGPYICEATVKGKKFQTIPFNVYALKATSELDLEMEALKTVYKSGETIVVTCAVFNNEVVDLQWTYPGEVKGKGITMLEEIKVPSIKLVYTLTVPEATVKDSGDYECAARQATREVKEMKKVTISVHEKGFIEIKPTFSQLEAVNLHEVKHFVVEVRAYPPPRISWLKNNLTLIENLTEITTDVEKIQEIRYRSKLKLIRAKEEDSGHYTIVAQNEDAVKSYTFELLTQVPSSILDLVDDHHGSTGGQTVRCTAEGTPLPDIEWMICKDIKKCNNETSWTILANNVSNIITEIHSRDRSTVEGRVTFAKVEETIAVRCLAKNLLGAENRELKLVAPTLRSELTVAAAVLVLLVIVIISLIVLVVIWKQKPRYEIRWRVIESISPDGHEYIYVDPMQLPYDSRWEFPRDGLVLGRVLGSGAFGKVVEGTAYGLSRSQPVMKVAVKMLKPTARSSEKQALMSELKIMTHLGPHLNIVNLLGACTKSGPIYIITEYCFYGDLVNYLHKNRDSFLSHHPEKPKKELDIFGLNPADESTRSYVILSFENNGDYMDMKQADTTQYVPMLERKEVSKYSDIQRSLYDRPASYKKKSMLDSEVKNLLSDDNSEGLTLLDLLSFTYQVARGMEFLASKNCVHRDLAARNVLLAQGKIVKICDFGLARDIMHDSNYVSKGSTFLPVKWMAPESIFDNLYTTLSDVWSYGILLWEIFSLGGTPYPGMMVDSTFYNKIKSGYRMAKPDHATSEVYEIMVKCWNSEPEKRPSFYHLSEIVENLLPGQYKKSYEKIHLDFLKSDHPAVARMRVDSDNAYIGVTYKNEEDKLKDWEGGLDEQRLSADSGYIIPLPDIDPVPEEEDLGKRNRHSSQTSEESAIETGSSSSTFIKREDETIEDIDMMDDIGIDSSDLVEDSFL

With `COc1cccc(OCCCOC(=O)Nc2ccc(Oc3ncnc4cc(OC)c(OC)cc34)cc2)c1` [Example 50, 3-(3-Methoxyphenoxy)propyl N-{4-[(6,7-dimethoxy-4-quinazolinyl)oxy]phenyl}carbamate], the pIC50 is over 8.00 on PDGF-Ra and 7.30 at c-kit.

For the compound `COc1cccc(OCCCOC(=O)Nc2ccc(Oc3ncnc4cc(OC)c(OC)cc34)cc2Cl)c1` [Example 51, 3-(3-Methoxyphenoxy)propyl N-{2-chloro-4-[(6,7-dimethoxy-4-quinazolinyl)oxy]phenyl}carbamate], the pIC50 on PDGF-Ra was 7.85; on c-kit, 6.57.

For `COc1cccc(C(C)OC(=O)Nc2ccc(Oc3ccnc4cc(OC)c(OC)cc34)cc2)c1` (stereo not drawn) [Example 52, 1-(3-Methoxyphenyl)ethyl N-{4-[(6,7-dimethoxy-4-quinolyl)oxy]phenyl}carbamate], the results for the pIC50 on PDGF-Ra and on c-kit were over 8.00 and 6.56, respectively.

For `COc1cccc(C(C)OC(=O)Nc2ccc(Oc3ccnc4cc(OC)c(OC)cc34)c(C)c2C)c1` (stereo not drawn) [Example 53, 1-(3-Methoxyphenyl)ethyl N-{4-[(6,7-dimethoxy-4-quinolyl)oxy]-2,3-dimethylphenyl}carbamate], the pIC50 on PDGF-Ra is over 8.00; at c-kit it was 6.32.

With `COc1cccc(C(C)OC(=O)Nc2cc(C)c(Oc3ccnc4cc(OC)c(OC)cc34)cc2C)c1` (stereo not drawn) [Example 54, 1-(3-Methoxyphenyl)ethyl N-{4-[(6,7-dimethoxy-4-quinolyl)oxy]-2,5-dimethylphenyl}carbamate], the pIC50 on PDGF-Ra is 7.82; on c-kit, 6.33.

With `COc1cccc(C(C)OC(=O)Nc2ccc(Oc3ncnc4cc(OC)c(OC)cc34)cc2)c1` (stereo not drawn) [Example 55, 1-(3-Methoxyphenyl)ethyl N-{4-[(6,7-dimethoxy-4-quinazolinyl)oxy]phenyl}carbamate], the pIC50 on PDGF-Ra was over 8.00; at c-kit, 6.54.

With `COc1cccc(C(C)OC(=O)Nc2ccc(Oc3ncnc4cc(OC)c(OC)cc34)cc2Cl)c1` (stereo not drawn) [Example 56, 1-(3-Methoxyphenyl)ethyl N-{2-chloro-4-[(6,7-dimethoxy-4-quinazolinyl)oxy]phenyl}carbamate], the pIC50 at PDGF-Ra is 7.96; at c-kit, 6.11.

As to `COc1cc2nccc(Oc3ccc(NC(=O)OCc4ccc(C(C)(C)C)cc4)cc3)c2cc1OC` [Example 57, 4-(Tert-butyl)benzyl N-{4-[(6,7-dimethoxy-4-quinolyl)oxy]phenyl}carbamate], the pIC50 on PDGF-Ra was 7.96; at c-kit, 6.41.

As for `COc1cc2nccc(Oc3ccc(NC(=O)OCc4ccc(C(C)(C)C)cc4)c(C)c3C)c2cc1OC` [Example 58, 4-(Tert-butyl)benzyl N-{4-[(6,7-dimethoxy-4-quinolyl)oxy]-2,3-dimethylphenyl}carbamate], the pIC50 at PDGF-Ra was 7.92; on c-kit, 6.30.

In the case of `COc1cc2nccc(Oc3cc(C)c(NC(=O)OCc4ccc(C(C)(C)C)cc4)cc3C)c2cc1OC` [Example 59, 4-(Tert-butyl)benzyl N-{4-[(6,7-dimethoxy-4-quinolyl)oxy]-2,5-dimethylphenyl}carbamate], the pIC50 on PDGF-Ra was 7.24. On c-kit, the inhibition at 1 µM worked out at 33%.

On to `COc1cc2ncnc(Oc3ccc(NC(=O)OCc4ccc(C(C)(C)C)cc4)cc3)c2cc1OC` [Example 60, 4-(Tert-butyl)benzyl N-{4-[(6,7-dimethoxy-4-quinazolinyl)oxy]phenyl}carbamate], for which the pIC50 on PDGF-Ra is over 8.00; at c-kit, 6.58.

Turning to `COc1cc2ncnc(Oc3ccc(NC(=O)OCc4ccc(C(C)(C)C)cc4)c(Cl)c3)c2cc1OC` [Example 61, 4-(Tert-butyl)benzyl N-{2-chloro-4-[(6,7-dimethoxy-4-quinazolinyl)oxy]phenyl}carbamate], the pIC50 on PDGF-Ra is 8.00. Also, the inhibition at 1 µM at c-kit was determined as 32%.

`COc1ccc(COC(=O)Nc2ccc(Oc3ccnc4cc(OC)c(OC)cc34)cc2)cc1OC` [Example 62, 3,4-Dimethoxybenzyl N-{4-[(6,7-dimethoxy-4-quinolyl)oxy]phenyl}carbamate]: the pIC50 on PDGF-Ra was 7.89; on c-kit, 7.15.

Regarding `COc1ccc(COC(=O)Nc2ccc(Oc3ccnc4cc(OC)c(OC)cc34)c(C)c2C)cc1OC` [Example 63, 3,4-Dimethoxybenzyl N-{4-[(6,7-dimethoxy-4-quinolyl)oxy]-2,3-dimethylphenyl}carbamate], the pIC50 was 7.80 at PDGF-Ra and 6.68 on c-kit.

For the compound `COc1ccc(COC(=O)Nc2cc(C)c(Oc3ccnc4cc(OC)c(OC)cc34)cc2C)cc1OC` [Example 64, 3,4-Dimethoxybenzyl N-{4-[(6,7-dimethoxy-4-quinolyl)oxy]-2,5-dimethylphenyl}carbamate], the pIC50 at PDGF-Ra was 7.05; on c-kit it was 6.37.

On to `COc1ccc(COC(=O)Nc2ccc(Oc3ncnc4cc(OC)c(OC)cc34)cc2)cc1OC` [Example 65, 3,4-Dimethoxybenzyl N-{4-[(6,7-dimethoxy-4-quinazolinyl)oxy]phenyl}carbamate], for which the negative-log IC50 (pIC50) is over 8.00 on PDGF-Ra and 6.99 at c-kit.

As to `COc1ccc(COC(=O)Nc2ccc(Oc3ncnc4cc(OC)c(OC)cc34)cc2Cl)cc1OC` [Example 66, 3,4-Dimethoxybenzyl N-{2-chloro-4-[(6,7-dimethoxy-4-quinazolinyl)oxy]phenyl}carbamate], the negative-log IC50 (pIC50) was 7.30 at PDGF-Ra and 6.45 at c-kit.

Turning to `COc1ccc(OC)c(COC(=O)Nc2ccc(Oc3ccnc4cc(OC)c(OC)cc34)cc2)c1` [Example 67, 2,5-Dimethoxybenzyl N-{4-[(6,7-dimethoxy-4-quinolyl)oxy]phenyl}carbamate], the pIC50 at PDGF-Ra is over 8.00; at c-kit, 6.47.

Take `COc1ccc(OC)c(COC(=O)Nc2ccc(Oc3ccnc4cc(OC)c(OC)cc34)c(C)c2C)c1` [Example 68, 2,5-Dimethoxybenzyl N-{4-[(6,7-dimethoxy-4-quinolyl)oxy]-2,3-dimethylphenyl}carbamate]: the pIC50 is 7.89 at PDGF-Ra and 6.53 on c-kit.

With `COc1ccc(OC)c(COC(=O)Nc2cc(C)c(Oc3ccnc4cc(OC)c(OC)cc34)cc2C)c1` [Example 69, 2,5-Dimethoxybenzyl N-{4-[(6,7-dimethoxy-4-quinolyl)oxy]-2,5-dimethylphenyl}carbamate], the values for the pIC50 at PDGF-Ra and on c-kit were 7.28 and 6.12, respectively.

On to `COc1ccc(OC)c(COC(=O)Nc2ccc(Oc3ncnc4cc(OC)c(OC)cc34)cc2)c1` [Example 70, 2,5-Dimethoxybenzyl N-{4-[(6,7-dimethoxy-4-quinazolinyl)oxy]phenyl}carbamate], for which the pIC50 was over 8.00 on PDGF-Ra and 6.35 on c-kit.

With `COc1ccc(OC)c(COC(=O)Nc2ccc(Oc3ncnc4cc(OC)c(OC)cc34)cc2Cl)c1` [Example 71, 2,5-Dimethoxybenzyl N-{2-chloro-4-[(6,7-dimethoxy-4-quinazolinyl)oxy]phenyl}carbamate], the pIC50 on PDGF-Ra was 7.42. The inhibition at 1 µM on c-kit was determined as 34%.

Turning to `COc1cc2nccc(Oc3ccc(NC(=O)OCCCSc4ccc(C(C)(C)C)cc4)cc3)c2cc1OC` [Example 72], the pIC50 at PDGF-Ra was 7.44; at c-kit, 6.41.

As for `COc1cc2nccc(Oc3ccc(NC(=O)OCCCSc4ccc(C(C)(C)C)cc4)c(C)c3C)c2cc1OC` [Example 73, 3-{[4-(Tert-butyl)phenyl]sulfanyl}-propyl N-{4-[(6,7-dimethoxy-4-quinolyl)oxy]-2,3-dimethylphenyl}carbamate], the pIC50 at PDGF-Ra was 7.55; on c-kit, 6.63.

(Values after patent US7135466B2 (Kirin Beer Kabushiki Kaisha, priority 1999, dated 2006).)
